The values that follow come from ChEMBL document CHEMBL3785034, “New isosteroidal alkaloids with tracheal relaxant effect from the bulbs of Fritillaria pallidiflora Schrenk” (Bioorg Med Chem Lett, 2016).

In assay [1] the test system is Trachea. Kind of assay: Inhibition of KCl-induced contraction in Sprague-Dawley rat trachea assessed as maximal diastolic rate at 10^-8 mol/L (reference value: 7 +/- 0.3%). Type of assay: functional. The arrangement: scale not given: the % may be the effect or the level left.
In assay [2] the test system is Trachea. Kind of assay: Inhibition of KCl-induced contraction in Sprague-Dawley rat trachea assessed as maximal diastolic rate at 10^-9 mol/L (reference value: 5.9 +/- 1.8%). Further details: scale not given: the % may be the effect or the level left. Type of assay: functional.
Assay [3] deals with Trachea. Kind of assay: Inhibition of KCl-induced contraction in Sprague-Dawley rat trachea assessed as maximal diastolic rate at 10^-7 mol/L (reference value: 7 +/- 0.8%). Type of assay: functional. The arrangement: scale not given: the % may be the effect or the level left.
Assay [4] concerns Trachea. In words: Inhibition of KCl-induced contraction in Sprague-Dawley rat trachea assessed as maximal diastolic rate at 10^-6 mol/L (reference value: 6 +/- 1.2%). The arrangement: scale not given: the % may be the effect or the level left. Type of assay: functional.
Assay [5] deals with Trachea. Kind of assay: Inhibition of KCl-induced contraction in Sprague-Dawley rat trachea assessed as maximal diastolic rate at 10^-5 mol/L (reference value: 6 +/- 0.6%). Type of assay: functional. Further details: scale not given: the % may be the effect or the level left.
Assay [6] deals with Trachea. In words: Inhibition of KCl-induced contraction in Sprague-Dawley rat trachea assessed as maximal diastolic rate at 10^-4 mol/L (reference value: 6.6 +/- 0.3%). It is filed as functional. Further details: scale not given: the % may be the effect or the level left.
Assay [7] concerns Trachea. Kind of assay: Inhibition of Ach-induced contraction in Sprague-Dawley rat trachea assessed as maximal diastolic rate at 10^-9 mol/L (reference value: 12.7 +/- 2.8%). It is filed as functional. Further details: scale not given: the % may be the effect or the level left.
The test system of assay [8] is Trachea. In words: Inhibition of Ach-induced contraction in Sprague-Dawley rat trachea assessed as maximal diastolic rate at 10^-8 mol/L (reference value: 14 +/- 1.8%). Type of assay: functional. The arrangement: scale not given: the % may be the effect or the level left.
Assay [9] deals with Trachea. Kind of assay: Inhibition of Ach-induced contraction in Sprague-Dawley rat trachea assessed as maximal diastolic rate at 10^-7 mol/L (reference value: 14.2 +/- 2.3%). It is filed as functional. Further details: scale not given: the % may be the effect or the level left.
Assay [10] relates to Trachea. In words: Inhibition of Ach-induced contraction in Sprague-Dawley rat trachea assessed as maximal diastolic rate at 10^-6 mol/L (reference value: 15.9 +/- 3%). The arrangement: scale not given: the % may be the effect or the level left. It is filed as functional.
Assay [11] deals with Trachea. In words: Inhibition of Ach-induced contraction in Sprague-Dawley rat trachea assessed as maximal diastolic rate at 10^-5 mol/L (reference value: 15.9 +/- 2.6%). Type of assay: functional. Further details: scale not given: the % may be the effect or the level left.
Assay [12] deals with Trachea. Kind of assay: Inhibition of Ach-induced contraction in Sprague-Dawley rat trachea assessed as maximal diastolic rate at 10^-4 mol/L (reference value: 15 +/- 4.2%). Type of assay: functional. The arrangement: scale not given: the % may be the effect or the level left.
In assay [13] the test system is Trachea. In words: Inhibition of Ach-induced contraction in Sprague-Dawley rat trachea assessed as tracheal tension at 10^-9 mol/L (reference value: 0.63 to 0.98g). Type of assay: functional.
In assay [14] the test system is Trachea. In words: Inhibition of Ach-induced contraction in Sprague-Dawley rat trachea assessed as tracheal tension at 10^-8 mol/L (reference value: 0.63 to 0.98 g). It is filed as functional.
The test system of assay [15] is Trachea. In words: Inhibition of Ach-induced contraction in Sprague-Dawley rat trachea assessed as tracheal tension at 10^-7 mol/L (reference value: 0.63 to 0.98 g). It is filed as functional.
Assay [16] relates to Trachea. Kind of assay: Inhibition of Ach-induced contraction in Sprague-Dawley rat trachea assessed as tracheal tension at 10^-6 mol/L (reference value: 0.63 to 0.98 g). Type of assay: functional.
Assay [17] has as its system Trachea. Kind of assay: Inhibition of Ach-induced contraction in Sprague-Dawley rat trachea assessed as tracheal tension at 10^-5 mol/L (reference value: 0.63 to 0.98 g). It is filed as functional.
Assay [18] relates to Trachea. Kind of assay: Inhibition of Ach-induced contraction in Sprague-Dawley rat trachea assessed as tracheal tension at 10^-4 mol/L (reference value: 0.63 to 0.98 g). Type of assay: functional.
The subject of assay [19] is Trachea. Kind of assay: Inhibition of KCl-induced contraction in Sprague-Dawley rat trachea assessed as tracheal tension at 10^-9 mol/L (reference value: 2.16 to 2.59 g). Type of assay: functional.
In assay [20] the test system is Trachea. Kind of assay: Inhibition of KCl-induced contraction in Sprague-Dawley rat trachea assessed as tracheal tension at 10^-8 mol/L (reference value: 2.16 to 2.59 g). It is filed as functional.
For assay [21], the system named is Trachea. Kind of assay: Inhibition of KCl-induced contraction in Sprague-Dawley rat trachea assessed as tracheal tension at 10^-7 mol/L (reference value: 2.16 to 2.59 g). It is filed as functional.
Assay [22] concerns Trachea. In words: Inhibition of KCl-induced contraction in Sprague-Dawley rat trachea assessed as tracheal tension at 10^-6 mol/L (reference value: 2.16 to 2.59 g). Type of assay: functional.
The test system of assay [23] is Trachea. Kind of assay: Inhibition of KCl-induced contraction in Sprague-Dawley rat trachea assessed as tracheal tension at 10^-5 mol/L (reference value: 2.16 to 2.59 g). It is filed as functional.
The test system of assay [24] is Trachea. Kind of assay: Inhibition of KCl-induced contraction in Sprague-Dawley rat trachea assessed as tracheal tension at 10^-4 mol/L (reference value: 2.16 to 2.59 g). Type of assay: functional.
In assay [25] the test system is Trachea. In words: Inhibition of Ach-induced contraction in Sprague-Dawley rat trachea at 1 to 100 umol/L. It is filed as functional, tissue-based. The conditions noted are these: read-out: pA2 (converted).
Assay [26] has as its system Trachea. Kind of assay: Inhibition of Ach-induced contraction in Sprague-Dawley rat trachea. Type of assay: functional, tissue-based.

For `C[C@H]1CC[C@@H]2N(C1)C[C@H]1[C@@H]3C[C@H]4[C@@H](CC(=O)[C@H]5C[C@@H](O[C@@H]6O[C@H](CO)[C@@H](O)[C@H](O)[C@H]6O)CC[C@@]54C)[C@@H]3CC[C@H]1[C@]2(C)O`, the Activity was found to be 5.2% in assay [1]; 7.5% in [2]; 5.2% in assay [3]; 5.3% in assay [4]; 4.5% in [5]; 3% in assay [6]. For the same molecule, the Activity in assay [7] is 12.6%; in assay [8], 15.2%; in [9], 17.7%; in assay [10], 20.5%; in assay [11], 22.7%; in [12], 129.3%. Besides, the Activity was 0.81 g in assay [13]; 0.78 g in [14]; 0.76 g in assay [15]; 0.74 g in assay [16]; 0.71 g in assay [17]; -0.13 g in [18]. In addition, the Activity in assay [19] is listed as 2.4 g; in assay [20] it was 2.45 g; in [21], 2.45 g; in assay [22], 2.45 g; in assay [23], 2.47 g; in assay [24] it was 2.52 g.
As for `COC(=O)C1=C(C)NC(C)=C(C(=O)OC)C1c1ccccc1[N+](=O)[O-]` [NIFEDIPINE], the Kb in assay [25] is 6.03 µM. In addition, in assay [26], a half-maximal response (EC50) required 6.5 µM.
Turning to `C[C@H]1CC[C@H]2[C@@](C)(O)[C@@H]3CC[C@@H]4[C@@H](C[C@H]5[C@H]4CC(=O)[C@H]4C[C@@H](O)CC[C@@]45C)[C@@H]3C[N+]2([O-])C1` (some centres undefined), the Activity amounted to 6.9% in assay [1]; 6.4% in assay [2]; 6.7% in assay [3]; 5.5% in assay [4]; 6.1% in assay [5]; 5.7% in [6]. For the same molecule, the Activity in assay [7] turned out to be 15.6%; in [8] it was 17.2%; in assay [9], 27%; in [10], 25.8%; in [11], 21.6%; in [12] it was 31.3%. In addition, the Activity was 0.61 g in assay [13]; 0.6 g in assay [14]; 0.56 g in assay [15]; 0.57 g in assay [16]; 0.58 g in [17]; 0.55 g in assay [18]. Also, the Activity in assay [19] worked out at 2.3 g; in [20] it was 2.29 g; in assay [21], 2.3 g; in assay [22] it was 2.32 g; in [23], 2.31 g; in [24], 2.31 g.
With `Cn1c(=O)c2[nH]cnc2n(C)c1=O` [AMINOPHYLLINE], in assay [25], the Kb is 0.0479 µM. The molecule further gave an EC50 in [26] of 0.05 µM.
Regarding `C[C@@H]1CN[C@H]2[C@@H](C)[C@@]3(CC[C@]4(O)[C@@H]5CC(=O)[C@H]6C[C@@H](O)CC[C@]6(C)[C@H]5C[C@]45O[C@]53C)O[C@@H]2C1`, the Activity amounted to 5.1% in assay [1]; 6.3% in [2]; 5.6% in [3]; 4.5% in assay [4]; 3.3% in assay [5]; 2.1% in assay [6]. In addition, the Activity in [7] stood at 15.2%; in assay [8] it was 18.3%; in assay [9], 23%; in [10] it was 27.1%; in [11], 30.2%; in [12], 23.4%. In addition, the Activity in [13] came out at 0.56 g; in assay [14] it was 0.55 g; in assay [15], 0.53 g; in [16], 0.52 g; in assay [17] it was 0.5 g; in [18] it was 0.53 g. In addition, the Activity in assay [19] came to 2.34 g; in assay [20] it was 2.37 g; in [21] it was 2.36 g; in assay [22], 2.39 g; in assay [23], 2.42 g; in [24] it was 2.45 g.
`C[C@H]1CC[C@H]2[C@@H](C)[C@H]3CC[C@@H]4[C@@H](C[C@H]5[C@H]4CC(=O)[C@H]4C[C@@H](O)CC[C@@]45C)[C@@H]3CN2C1`: the Activity in [1] was found to be 5.3%; in [2] it was 5.7%; in assay [3] it was 3.9%; in [4] it was 3.2%; in assay [5], 3.2%; in assay [6] it was 2.9%. Besides, the Activity in assay [7] is on record as 12.2%; in assay [8], 16.3%; in assay [9] it was 17.9%; in assay [10], 19.8%; in assay [11] it was 19.5%; in [12], 20.9%. The Activity in assay [13] amounted to 0.59 g; in [14] it was 0.56 g; in assay [15] it was 0.56 g; in assay [16], 0.55 g; in assay [17], 0.55 g; in [18], 0.54 g. The Activity in assay [19] came out at 2.16 g; in assay [20], 2.18 g; in assay [21], 2.2 g; in assay [22], 2.2 g; in assay [23] it was 2.2 g; in [24] it was 2.21 g.
Take `Cc1c([C@H](C)[C@@H]2NC[C@@H](C)C[C@H]2O)ccc2c1C[C@H]1[C@H]2CC(=O)[C@H]2C[C@@H](O)CC[C@@]21C`: the Activity in [1] is listed as 4.8%; in assay [2], 5.7%; in [3] it was 6.1%; in assay [4], 7.2%; in assay [5], 8%; in assay [6] it was 13.9%. The Activity was 13.6% in [7]; 16% in assay [8]; 18.9% in [9]; 21.3% in assay [10]; 24.5% in assay [11]; 115.2% in assay [12]. The Activity was 0.54 g in assay [13]; 0.53 g in assay [14]; 0.52 g in [15]; 0.5 g in assay [16]; 0.48 g in assay [17]; -0.11 g in [18]. Further, the Activity in [19] is 2.23 g; in assay [20], 2.25 g; in assay [21] it was 2.22 g; in [22], 2.2 g; in assay [23] it was 2.18 g; in [24], 2.04 g.
